Data on two compounds can be found in BindingDB's records for doi:10.1021/jm00207a020 (1978).

This assay addresses Adenylate cyclase type 1 (Rattus norvegicus, UniProt D4A3N4). Briefly: Inhibition of dopamine-sensitive rat brain adenylyl cyclase activity assessed as cAMP level.

As a reminder, the IC50 is the concentration needed to halve the response being measured.

Chain of Adenylate cyclase type 1 (D4A3N4 whole entry): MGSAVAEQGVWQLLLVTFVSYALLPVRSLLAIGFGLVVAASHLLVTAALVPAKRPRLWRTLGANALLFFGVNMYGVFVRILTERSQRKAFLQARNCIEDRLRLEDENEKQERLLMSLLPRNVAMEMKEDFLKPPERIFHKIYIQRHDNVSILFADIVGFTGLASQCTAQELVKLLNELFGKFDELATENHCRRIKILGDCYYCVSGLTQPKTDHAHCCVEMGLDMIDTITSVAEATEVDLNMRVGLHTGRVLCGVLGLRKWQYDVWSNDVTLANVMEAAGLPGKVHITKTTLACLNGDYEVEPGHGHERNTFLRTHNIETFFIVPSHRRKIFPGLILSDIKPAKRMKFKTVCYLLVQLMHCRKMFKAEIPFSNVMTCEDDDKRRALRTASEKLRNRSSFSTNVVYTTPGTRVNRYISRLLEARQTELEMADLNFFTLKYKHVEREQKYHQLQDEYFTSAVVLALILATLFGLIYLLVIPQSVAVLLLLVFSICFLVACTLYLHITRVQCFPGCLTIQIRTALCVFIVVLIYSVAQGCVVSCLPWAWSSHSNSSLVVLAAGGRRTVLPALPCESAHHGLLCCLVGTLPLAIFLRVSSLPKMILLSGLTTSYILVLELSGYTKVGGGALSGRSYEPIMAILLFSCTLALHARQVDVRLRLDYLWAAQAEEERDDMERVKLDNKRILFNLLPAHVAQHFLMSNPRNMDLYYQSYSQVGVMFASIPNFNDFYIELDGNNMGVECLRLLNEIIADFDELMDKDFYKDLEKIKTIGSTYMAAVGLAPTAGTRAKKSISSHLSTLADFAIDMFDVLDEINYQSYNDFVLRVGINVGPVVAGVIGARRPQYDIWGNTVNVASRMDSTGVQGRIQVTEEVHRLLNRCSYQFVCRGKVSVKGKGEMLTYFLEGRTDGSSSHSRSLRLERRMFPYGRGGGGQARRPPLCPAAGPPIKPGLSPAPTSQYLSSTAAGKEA

As to `c1ccc(C2=Nc3ccccc3N=C(N3CCC(c4ccccc4)CC3)C2)cc1`, the 50% inhibitory concentration (IC50) is 4.5 nM. The result for `CN1CCN(C2=Nc3cc(Cl)ccc3Nc3ccccc32)CC1` [8-Chloro-11-(4-methyl-piperazin-1-yl)-5H-dibenzo[b,e][1,4]diazepine(Clopazine)] reads 1.4 nM.
